Patent US20180353445A1, “METHODS AND COMPOSITIONS RELATING TO PROTEASOME INHIBITOR RESISTANCE” (Whitehead Institute for Biomedical Research, priority 2017, published 2018)
Entries after “also recorded” stand apart in the source; their conditions may differ.

Assays:
FDX1 = target: T1, FDX1 (Homo sapiens, UniProt P10109); experiment: In vitro Fe-S cluster assembly assay with reduced FDX1; assay type: biochemical; settings: reduced FDX1 as reductant; 5x and 10x stoichiometry relative to ISCU and FDX1
T1 construct: made in house
T1 sequence (P10109 62-184): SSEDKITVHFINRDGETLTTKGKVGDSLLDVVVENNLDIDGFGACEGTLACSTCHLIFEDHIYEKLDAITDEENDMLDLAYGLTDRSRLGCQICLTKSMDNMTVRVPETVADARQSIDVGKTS
Description: Whether elesclomol can inhibit the functional activity of FDX1 in mediating the Fe—S cluster formation was also examined. […] (FIG. 47A) A “x5 concentration” as shown in FIGS. 47A-47C means that elesclomol (or isoform) was present at 5 times the concentration of the enzyme. The assay used in FIGS. 47A-47C is described in the paper Cai et al., Biochemistry, 2017, 56 (3), pp 487-499.
Fe—S clusters are generated from sulfur extracted from cysteine by the iron sulfur-cluster (ISC) core complex (NFS1-ISD11-Acp-ISCU)2 and iron. A reductant (FDX1 or FDX2) is required for Fc-S cluster biosynthesis (Lill and Muhlenhoff, 2006; Py and Barras, 2010) (FIG. 53A). […]
Protein Expression and Purification—Unlabeled samples of ISCU, unlabeled (NFS1-ISD11-Acp)2 (abbreviated as SDA), unlabeled and [U-^15N]-FDX1 (truncated first 61 amino acids) and unlabeled FDX2 were produced and purified as described previously (Cai et al., 2013; Cai et al., 2017a; Cai et al., 20176). […] The reduction of FDX1 or FDX2 was monitored by the color change from dark brown to light pink and by recording IN/vis spectra before and after reduction. […]
In vitro Fe—S cluster assembly assay—The in vitro Fe—S cluster assembly assays were carried out as follows. […] The growth of absorbance at 456 nm was used to monitor the assembly of [2Fe-2S] clusters.

T47D cells = experiment: Elesclomol combined with proteasome inhibitors, control and PSMD2 KD (Lo19S) T47D cells, CellTiter-Glo; assay type: cell-based, human
Method: FIGS. 38A-38D: Elesclomol synergizes with proteasome inhibitors. Validation of drug screen results. Control and PSMD2 knockdown cells were exposed to the indicated concentrations of either ixazomib (FIG. 38A) or elesclomol (FIG. 38B). Control (FIG. 38C) or PSMD2 KD (FIG. 38D) cells were treated with increasing concentrations of ixa.zomib in the presence or absence of the indicated concentrations of elesclomol. Cell viability was examined 72 hours after drug application using CellTiter-Glo.
(FIG. 39B) Cells with the 19S PSMD2 subunit KD were treated with indicated concentration of ixazomib or with indicated concentrations of ixazomib with 4:1 ratio of ixazomib to elesclomol (i,e, the concentration of elesclomol is 4× smaller than the indicated concentration of ixazomib). (FIG. 39C) The experiment described in (FIGS. 39A-39B).
FIGS. 50A-50D: Elesclomol targets the Lo19S state to block proteasome inhibitor resistance. […] The relative viability of the Lo19S versus control cells was calculated for replica experiments and the log2 of the ratio is plotted. […] The relative viability of the respiring cells (Hi-OXPHOS) (gal) versus the control cells (glu) was calculated for replica experiments and the log2 of the ratio is plotted. Specific compounds are annotated. […] Plotted are the mean±−SD of at least three replicas and the calculated EC50s. […]

[1] = tested on: IMR32 (reduced PSMD5) and Kelly neuroblastoma cells; experiment: Viability of IMR32 versus Kelly neuroblastoma cells (CellTiter-Glo); assay type: cell-based, human; settings: other experiments, e.g., 0.1 uM

| Compound | inhibition of in vitro Fe-S cluster assembly (FDX1) | combination effect with proteasome inhibitors (T47D cells) | toxicity at lower concentrations than 1 uM [1] |
| --- | --- | --- | --- |
| CN(NC(=O)CC(=O)NN(C)C(=S)c1ccccc1)C(=S)c1ccccc1 [elesclomol] | sufficient to induce an inhibitory effect; also recorded: progressively inhibited | synergizes | – |
| CC1(C)CCC(c2ccc(Cl)cc2)=C(CN2CCN(c3ccc(C(=O)NS(=O)(=O)c4ccc(N[C@H](CCN5CCOCC5)CSc5ccccc5)c(S(=O)(=O)C(F)(F)F)c4)cc3)CC2)C1 [ABT-263, navitoclax] | – | – | a similar level of toxicity was observed |
